Tests used:
[1] = GLP toxicity test; cited from earlier work
[2] = tested on: arthritis induced by bovine type II collagen in male DBA/1J mouse; experiment: Collagen-induced arthritis animal model; assay type: in vivo; settings: for histopathological arthritis score of knee joint: knee joint of both hind legs, vs negative control (FIG. 6); for histopathological arthritis score of knee joint / concentration of IL-6 in serum: EC-18 125, 500, 2,000 mg/kg oral, Remicade 20 mg/kg intraperitoneal, methotrexate 2.5 mg/kg oral; for concentration of IL-6 in serum: serum collected at day of tissue excision, once a day for five weeks, vs negative control (FIG. 4)
Procedure: For arthritis animal model experiment, arthritis was induced in male DBA/1J mouse by administering bovine type II collagen to the mouse. Efficacy of EC-18 for treating (or improving) arthritis was evaluated by repeatedly administering EC-18 to the mouse orally. For comparison, Remicade (positive control 1) was administered intraperitoneally and methotrexate (positive control 2) was administered orally. The experiment included seven groups: normal group (G1), negative control (G2), 125 mg/kg, 500 mg/kg and 2,000 mg/kg of EC-18 (EC-18 treatment groups, G3, G4, G5), 20 mg/kg of Remicade (Positive control 1, G6) and 2.5 mg/kg of Methotrexate (Positive control 2, G7). Each group consists of 10 mice. Olive oil was administered to normal group (G1) and negative control group (G2) as an excipient. In all groups, administration was made once a day for five weeks (a total of 35 administrations). Remicade (G6) was administered intraperitoneally, whereas EC-18, methotrexate and olive oil were administered orally in force. For all groups except normal Group (G1), arthritis was induced by immunizing animals twice with bovine type II collagen and complete Freund's adjuvant or incomplete Freund's adjuvant emulsion. During the observation period, common arthritis symptoms were observed once a day, weigh measured once a week, arthritic score evaluation made with the naked eye twice a week, foot thickness measured twice a week.

Row | Compound | toxicity [1] | histopathological arthritis score of knee joint [2] | concentration of IL-6 in serum [2] | crushing of cartilage and increase of Pannus (stained arthritic tissue) ([2]; EC-18 500 mg/kg (G4), Remicade 20 mg/kg (G6), vs negative control (FIGS. 7 and 8))
1 | CCCCC/C=C\C/C=C\CCCCCCCC(=O)OC(COC(C)=O)COC(=O)CCCCCCCCCCCCCCC (stereo not drawn) [EC-18, 1-palmitoyl-2-linoleoyl-3-acetylglycerol] | no toxicity | – | – | –
2 | CN(Cc1cnc2nc(N)nc(N)c2n1)c1ccc(C(=O)N[C@@H](CCC(=O)O)C(=O)O)cc1 [Methothrexate, methotrexate] | – | reduced | reduced | –
3 | Remicade: positive control 1, administered intraperitoneally at 20 mg/kg | – | reduced | reduced | reduced
